Assays:
[1] = test system: NCI-H460; assay: Induction of apoptosis in human NCI-H460 cells assessed as necrotic cells at 1.5 uM incubated for 48 hrs by annexin V-FITC and PI staining based flow cytometry analysis (reference value: 0.7 %); format: functional
[2] = test system: NCI-H460; assay: Induction of apoptosis in human NCI-H460 cells assessed as late apoptotic cells at 3 uM incubated for 48 hrs by annexin V-FITC and PI staining based flow cytometry analysis (reference value: 7.3 %); format: functional
[3] = test system: HCT-116; assay: Induction of cell cycle arrest in human HCT-116 cells assessed as G2/M phase at 1.5 uM incubated for 12 hrs by PI staining based flow cytometry analysis (reference value: 21.7 +/- 1.9 %); format: functional
[4] = test system: NCI-H460; assay: Induction of cell cycle arrest in human NCI-H460 cells assessed as G1 phase at 1.5 uM incubated for 12 hrs by PI staining based flow cytometry analysis (reference value: 66 +/- 10 %); format: functional
[5] = test system: NCI-H460; assay: Induction of cell cycle arrest in human NCI-H460 cells assessed as G2/M phase at 3 uM incubated for 36 hrs by PI staining based flow cytometry analysis (reference value: 25 +/- 1.2 %); format: functional
[6] = test system: HCT-116; assay: Induction of cell cycle arrest in human HCT-116 cells assessed as G2/M phase at 0.75 uM measured at 0 hrs by PI staining based flow cytometry analysis (reference value: 28.9 +/- 1.4 %); format: functional
[7] = test system: NCI-H460; assay: Induction of cell cycle arrest in human NCI-H460 cells assessed as G0 phase at 0.75 uM measured at 0 hrs by PI staining based flow cytometry analysis (reference value: 1.3 +/- 0.9 %); format: functional
[8] = test system: HCT-116; assay: Induction of cell cycle arrest in human HCT-116 cells assessed as G2/M phase at 0.75 uM incubated for 24 hrs by PI staining based flow cytometry analysis (reference value: 9.3 +/- 0.8 %); format: functional
[9] = Cytotoxicity against human PacaS1 cells assessed as reduction in cell viability incubated for 72 hrs by XTT assay; format: functional, cell-based; conditions: PacaS1, 72 h
[10] = test system: NCI-H460; assay: Induction of cell cycle arrest in human NCI-H460 cells assessed as S phase at 3 uM incubated for 36 hrs by PI staining based flow cytometry analysis (reference value: 7.6 +/- 3.9 %); format: functional
[11] = test system: NCI-H460; assay: Induction of cell cycle arrest in human NCI-H460 cells assessed as G2/M phase at 3 uM measured at 0 hrs by PI staining based flow cytometry analysis (reference value: 25.2 +/- 4 %); format: functional
[12] = test system: HCT-116; assay: Induction of cell cycle arrest in human HCT-116 cells assessed as S phase at 1.5 uM incubated for 12 hrs by PI staining based flow cytometry analysis (reference value: 15.5 +/- 0.2 %); format: functional
[13] = test system: HCT-116; assay: Induction of cell cycle arrest in human HCT-116 cells assessed as S phase at 1.5 uM incubated for 24 hrs by PI staining based flow cytometry analysis (reference value: 21.2 +/- 5.4 %); format: functional
[14] = test system: NCI-H460; assay: Induction of cell cycle arrest in human NCI-H460 cells assessed as S phase at 1.5 uM incubated for 24 hrs by PI staining based flow cytometry analysis (reference value: 11.7 +/- 6.1 %); format: functional
[15] = test system: NCI-H460; assay: Induction of apoptosis in human NCI-H460 cells assessed as viable cells at 6 uM incubated for 48 hrs by annexin V-FITC and PI staining based flow cytometry analysis (reference value: 90.1 %); format: functional; conditions: read-out: Activity
[16] = Solubility in mixture of ethanol/PEG400/Cremophor EL/0.9% saline; format: physicochemical; conditions: buffer
[17] = test system: HCT-116; assay: Induction of cell cycle arrest in human HCT-116 cells assessed as S phase at 0.375 uM measured at 0 hrs by PI staining based flow cytometry analysis (reference value: 12.4 +/- 6.2 %); format: functional
[18] = test system: NCI-H460; assay: Induction of cell cycle arrest in human NCI-H460 cells assessed as G0 phase at 0.75 uM incubated for 12 hrs by PI staining based flow cytometry analysis (reference value: 2.9 +/- 2.4 %); format: functional
[19] = test system: HCT-116; assay: Induction of cell cycle arrest in human HCT-116 cells assessed as G2/M phase at 1.5 uM incubated for 36 hrs by PI staining based flow cytometry analysis (reference value: 23.6 +/- 1 %); format: functional
[20] = test system: HCT-116; assay: Induction of cell cycle arrest in human HCT-116 cells assessed as G0 phase at 0.75 uM measured at 0 hrs by PI staining based flow cytometry analysis (reference value: 0.7 +/- 0.2 %); format: functional
[21] = test system: NCI-H460; assay: Induction of cell cycle arrest in human NCI-H460 cells assessed as G1 phase at 0.75 uM measured at 0 hrs by PI staining based flow cytometry analysis (reference value: 53.4 +/- 4.8 %); format: functional
[22] = test system: NCI-H460; assay: Induction of apoptosis in human NCI-H460 cells assessed as necrotic cells at 3 uM incubated for 48 hrs by annexin V-FITC and PI staining based flow cytometry analysis (reference value: 0.7 %); format: functional
[23] = test system: HCT-116; assay: Induction of cell cycle arrest in human HCT-116 cells assessed as S phase at 0.375 uM incubated for 36 hrs by PI staining based flow cytometry analysis (reference value: 7.9 +/- 3.7 %); format: functional
[24] = test system: NCI-H460; assay: Induction of apoptosis in human NCI-H460 cells assessed as early apoptotic cells at 1.5 uM incubated for 48 hrs by annexin V-FITC and PI staining based flow cytometry analysis (reference value: 2 %); format: functional
[25] = test system: HCT-116; assay: Induction of cell cycle arrest in human HCT-116 cells assessed as S phase at 0.375 uM incubated for 12 hrs by PI staining based flow cytometry analysis (reference value: 15.5 +/- 0.2 %); format: functional
[26] = test system: NCI-H460; assay: Induction of cell cycle arrest in human NCI-H460 cells assessed as G1 phase at 1.5 uM incubated for 24 hrs by PI staining based flow cytometry analysis (reference value: 56.8 +/- 7.6 %); format: functional
[27] = test system: NCI-H460; assay: Induction of cell cycle arrest in human NCI-H460 cells assessed as S phase at 3 uM incubated for 24 hrs by PI staining based flow cytometry analysis (reference value: 11.7 +/- 6.1 %); format: functional
[28] = test system: NCI-H460; assay: Induction of cell cycle arrest in human NCI-H460 cells assessed as S phase at 0.75 uM measured at 0 hrs by PI staining based flow cytometry analysis (reference value: 12.2 +/- 2.8 %); format: functional
[29] = test system: NCI-H460; assay: Induction of cell cycle arrest in human NCI-H460 cells assessed as G2/M phase at 1.5 uM incubated for 36 hrs by PI staining based flow cytometry analysis (reference value: 25 +/- 1.2 %); format: functional
[30] = test system: HCT-116; assay: Induction of cell cycle arrest in human HCT-116 cells assessed as G2/M phase at 0.375 uM incubated for 12 hrs by PI staining based flow cytometry analysis (reference value: 21.7 +/- 1.9 %); format: functional
[31] = test system: HCT-116; assay: Induction of cell cycle arrest in human HCT-116 cells assessed as G1 phase at 1.5 uM incubated for 24 hrs by PI staining based flow cytometry analysis (reference value: 55 +/- 9.8 %); format: functional
[32] = test system: HCT-116; assay: Induction of cell cycle arrest in human HCT-116 cells assessed as G1 phase at 1.5 uM incubated for 12 hrs by PI staining based flow cytometry analysis (reference value: 53.6 +/- 4.5 %); format: functional

## OCc1cn2c3ccccc3c3ccccc3c2c1CO
[1]
  Activity: 0.5%
[2]
  Activity: 51.4%
[3]
  Activity: 24%
[4]
  Activity: 50.7%
[5]
  Activity: 25.6%
[6]
  Activity: 28.5%
[7]
  Activity: 1.8%
[8]
  Activity: 25.6%
[9]
  IC50: 1410 nM
[10]
  Activity: 9.6%
[11]
  Activity: 24.6%
[12]
  Activity: 19.9%
[13]
  Activity: 5.7%
[14]
  Activity: 8.6%
[15]
  viability at 6 µM: 13.4%
[16]
  solubility: Soluble
[17]
  Activity: 12.4%
[18]
  Activity: 3.7%
[19]
  Activity: 20.7%
[20]
  Activity: 0.8%
[21]
  Activity: 54.9%
[22]
  Activity: 1.6%
[23]
  Activity: 8.2%
[24]
  Activity: 3.6%
[25]
  Activity: 16.9%
[26]
  Activity: 56.3%
[27]
  Activity: 10.9%
[28]
  Activity: 12.6%
[29]
  Activity: 17.5%
[30]
  Activity: 23.2%
[31]
  Activity: 54.5%
[32]
  Activity: 48.8%
